Biological target: D(3) dopamine receptor (Rattus norvegicus, UniProt P19020)
Assay: Compound was tested for binding affinity at the rat Dopamine receptor D3 expressed in Chinese hamster ovary cells; No significant affinity.
Format: cell-based

Sequence of D(3) dopamine receptor (P19020 whole entry): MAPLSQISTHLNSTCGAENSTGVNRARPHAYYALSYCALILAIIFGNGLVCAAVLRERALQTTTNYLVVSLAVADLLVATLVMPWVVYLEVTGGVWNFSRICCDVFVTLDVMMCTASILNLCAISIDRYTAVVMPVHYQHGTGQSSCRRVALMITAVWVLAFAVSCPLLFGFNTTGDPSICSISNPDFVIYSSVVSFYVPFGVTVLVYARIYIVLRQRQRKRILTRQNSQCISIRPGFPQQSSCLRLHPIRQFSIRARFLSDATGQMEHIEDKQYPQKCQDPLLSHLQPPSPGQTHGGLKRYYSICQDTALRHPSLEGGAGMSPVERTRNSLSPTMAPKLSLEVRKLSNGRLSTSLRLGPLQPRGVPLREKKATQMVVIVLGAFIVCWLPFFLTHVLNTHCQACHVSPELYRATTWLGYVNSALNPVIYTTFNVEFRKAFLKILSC

Compound | Log Ki
CCCN[C@H]1COc2ccccc2[C@@H]1C.Cl | < -6.5
C=C1c2ccccc2OC[C@@H]1NCCC.Cl | > -6.5
